Source: PubChem BioAssay (NCI)
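All cell lines were grown in 96-well plates and treated with compound for 48 hours. TGI denotes the concentration required for complete inhibition of growth.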

Assays:
Assay in all cases: growth of human tumour cells (NCI), 48 h
786-0 renal = system: 786-0 renal
A498 renal = system: A498 renal
A549 NSCLC = system: A549 NSCLC
ACHN renal = system: ACHN renal
CAKI-1 renal = system: CAKI-1 renal
CCRF-CEM leukemia = system: CCRF-CEM leukemia
COLO 205 colon = system: COLO 205 colon
DU-145 prostate = system: DU-145 prostate
EKVX NSCLC = system: EKVX NSCLC
HCT-116 colon = system: HCT-116 colon
HCT-15 colon = system: HCT-15 colon
HL-60(TB) leukemia = system: HL-60(TB) leukemia
HOP-62 NSCLC = system: HOP-62 NSCLC
HOP-92 NSCLC = system: HOP-92 NSCLC
HS 578T breast = system: HS 578T breast
HT29 colon = system: HT29 colon
IGROV1 ovarian = system: IGROV1 ovarian
K-562 leukemia = system: K-562 leukemia
KM12 colon = system: KM12 colon
LOX IMVI melanoma = system: LOX IMVI melanoma
M14 melanoma = system: M14 melanoma
MALME-3M melanoma = system: MALME-3M melanoma
MCF7 breast = system: MCF7 breast
MDA-MB-231 breast = system: MDA-MB-231 breast
MDA-MB-435 = system: MDA-MB-435
MDA-N = system: MDA-N
MOLT-4 leukemia = system: MOLT-4 leukemia
NCI-H226 lung = system: NCI-H226 lung
NCI-H23 lung = system: NCI-H23 lung
NCI-H460 lung = system: NCI-H460 lung
NCI-H522 lung = system: NCI-H522 lung
NCI/ADR-RES ovarian = system: NCI/ADR-RES ovarian
OVCAR-3 ovarian = system: OVCAR-3 ovarian
OVCAR-4 ovarian = system: OVCAR-4 ovarian
OVCAR-5 ovarian = system: OVCAR-5 ovarian
OVCAR-8 ovarian = system: OVCAR-8 ovarian
PC-3 prostate = system: PC-3 prostate
RPMI-8226 leukemia = system: RPMI-8226 leukemia
RXF 393 renal = system: RXF 393 renal
SF-268 CNS = system: SF-268 CNS
SF-295 CNS = system: SF-295 CNS
SF-539 CNS = system: SF-539 CNS
SK-MEL-2 melanoma = system: SK-MEL-2 melanoma
SK-MEL-28 melanoma = system: SK-MEL-28 melanoma
SK-MEL-5 melanoma = system: SK-MEL-5 melanoma
SK-OV-3 ovarian = system: SK-OV-3 ovarian
SN12C renal = system: SN12C renal
SNB-19 CNS = system: SNB-19 CNS
SNB-75 CNS = system: SNB-75 CNS
SR leukemia = system: SR leukemia
SW-620 colon = system: SW-620 colon
TK-10 renal = system: TK-10 renal
U251 CNS = system: U251 CNS
UACC-257 melanoma = system: UACC-257 melanoma
UACC-62 melanoma = system: UACC-62 melanoma
UO-31 renal = system: UO-31 renal
BT-549 breast = system: BT-549 breast

CN(CC(=O)O)c1ncc2c(n1)C=CCC2
TGI (786-0 renal): > 100 µM | TGI (A498 renal): > 100 µM | TGI (A549 NSCLC): > 100 µM | TGI (ACHN renal): > 100 µM | TGI (CAKI-1 renal): > 100 µM | TGI (CCRF-CEM leukemia): > 100 µM | TGI (COLO 205 colon): > 100 µM | TGI (DU-145 prostate): > 100 µM | TGI (EKVX NSCLC): > 100 µM | TGI (HCT-116 colon): > 100 µM | TGI (HCT-15 colon): > 100 µM | TGI (HL-60(TB) leukemia): > 100 µM | TGI (HOP-62 NSCLC): > 100 µM | TGI (HOP-92 NSCLC): > 100 µM | TGI (HS 578T breast): > 100 µM | TGI (HT29 colon): > 100 µM | TGI (IGROV1 ovarian): > 100 µM | TGI (K-562 leukemia): > 100 µM | TGI (KM12 colon): > 100 µM | TGI (LOX IMVI melanoma): > 100 µM | TGI (M14 melanoma): > 100 µM | TGI (MALME-3M melanoma): > 100 µM | TGI (MCF7 breast): > 100 µM | TGI (MDA-MB-231 breast): > 100 µM | TGI (MDA-MB-435): > 100 µM | TGI (MDA-N): > 100 µM | TGI (MOLT-4 leukemia): > 100 µM | TGI (NCI-H226 lung): > 100 µM | TGI (NCI-H23 lung): > 100 µM | TGI (NCI-H460 lung): > 100 µM | TGI (NCI-H522 lung): > 100 µM | TGI (NCI/ADR-RES ovarian): > 100 µM | TGI (OVCAR-3 ovarian): > 100 µM | TGI (OVCAR-4 ovarian): > 100 µM | TGI (OVCAR-5 ovarian): > 100 µM | TGI (OVCAR-8 ovarian): > 100 µM | TGI (PC-3 prostate): > 100 µM | TGI (RPMI-8226 leukemia): > 100 µM | TGI (RXF 393 renal): > 100 µM | TGI (SF-268 CNS): > 100 µM | TGI (SF-295 CNS): > 100 µM | TGI (SF-539 CNS): > 100 µM | TGI (SK-MEL-2 melanoma): > 100 µM | TGI (SK-MEL-28 melanoma): > 100 µM | TGI (SK-MEL-5 melanoma): > 100 µM | TGI (SK-OV-3 ovarian): > 100 µM | TGI (SN12C renal): > 100 µM | TGI (SNB-19 CNS): > 100 µM | TGI (SNB-75 CNS): > 100 µM | TGI (SR leukemia): > 100 µM | TGI (SW-620 colon): > 100 µM | TGI (TK-10 renal): > 100 µM | TGI (U251 CNS): > 100 µM | TGI (UACC-257 melanoma): > 100 µM | TGI (UACC-62 melanoma): > 100 µM | TGI (UO-31 renal): > 100 µM

O=C1CSC(=S)N1c1ccco1
TGI (786-0 renal): 61 µM | TGI (A498 renal): > 100 µM | TGI (A549 NSCLC): > 100 µM | TGI (ACHN renal): > 100 µM | TGI (BT-549 breast): 50.4 µM | TGI (CAKI-1 renal): > 100 µM | TGI (CCRF-CEM leukemia): > 100 µM | TGI (COLO 205 colon): > 100 µM | TGI (DU-145 prostate): > 100 µM | TGI (EKVX NSCLC): > 100 µM | TGI (HCT-116 colon): > 100 µM | TGI (HCT-15 colon): 50.9 µM | TGI (HL-60(TB) leukemia): > 100 µM | TGI (HOP-62 NSCLC): > 100 µM | TGI (HOP-92 NSCLC): > 100 µM | TGI (HS 578T breast): > 100 µM | TGI (HT29 colon): > 100 µM | TGI (IGROV1 ovarian): > 100 µM | TGI (K-562 leukemia): > 100 µM | TGI (KM12 colon): 52.6 µM | TGI (LOX IMVI melanoma): > 100 µM | TGI (M14 melanoma): > 100 µM | TGI (MALME-3M melanoma): > 100 µM | TGI (MCF7 breast): > 100 µM | TGI (MDA-MB-231 breast): 92.7 µM | TGI (MDA-MB-435): 75.6 µM | TGI (MDA-N): 45.4 µM | TGI (MOLT-4 leukemia): > 100 µM | TGI (NCI-H226 lung): > 100 µM | TGI (NCI-H23 lung): > 100 µM | TGI (NCI-H460 lung): > 100 µM | TGI (NCI-H522 lung): 64.1 µM | TGI (NCI/ADR-RES ovarian): > 100 µM | TGI (OVCAR-3 ovarian): > 100 µM | TGI (OVCAR-4 ovarian): > 100 µM | TGI (OVCAR-5 ovarian): > 100 µM | TGI (OVCAR-8 ovarian): > 100 µM | TGI (PC-3 prostate): > 100 µM | TGI (RPMI-8226 leukemia): > 100 µM | TGI (RXF 393 renal): > 100 µM | TGI (SF-268 CNS): > 100 µM | TGI (SF-295 CNS): > 100 µM | TGI (SF-539 CNS): > 100 µM | TGI (SK-MEL-2 melanoma): > 100 µM | TGI (SK-MEL-28 melanoma): > 100 µM | TGI (SK-MEL-5 melanoma): > 100 µM | TGI (SK-OV-3 ovarian): > 100 µM | TGI (SN12C renal): > 100 µM | TGI (SNB-19 CNS): > 100 µM | TGI (SR leukemia): > 100 µM | TGI (SW-620 colon): > 100 µM | TGI (TK-10 renal): > 100 µM | TGI (U251 CNS): > 100 µM | TGI (UACC-257 melanoma): > 100 µM
